# Tests used:
# [1] = Powder flowability experiment (tap density, compression coefficient); format: physicochemical
# [2] = Dissolution experiment of crystalline form XI capsules (paddle method, pH 4.0 medium); format: physicochemical; details: capsules of form XI (Example 12), 900ml, 37℃, 75r/min, UV 250nm
# [3] = Impurity stability under storage conditions (HPLC purity after 30 days); format: physicochemical; details: high temperature 60℃, high humidity 92.5%, high humidity 75% and light irradiation, sample of Example 11
# [4] = Hygroscopicity experiment of crystalline form XI (DVS, dynamic vapour sorption); format: physicochemical; details: 25℃, sample of Example 1
# in vivo = details: rat, po, 1.25 mg/kg
# [5] = Crystal form stability under storage conditions (XRD, day 0 vs day 30); format: physicochemical; details: storage conditions of Table 3 (high temperature 60℃, high humidity 92.5%, high humidity 75%, light irradiation), sample of Example 11
"compression coefficient (comparison) ([1]; compression coefficient (%) = 100% (tap density - bulk density)/tap density, form C (made according to CN100569753C) vs form XI (Example 12))",time at which dissolution is basically complete [2],change of purity (HPLC) [3],flowability (comparison) ([1]; form XI (Example 12) vs form C (made according to CN100569753C)),weight loss ([4]; relative humidity 0~40%),weight gain by moisture absorption ([4]; relative humidity 40~80%),AUC(0-t) at 24 h (in vivo),Cmax (in vivo),Tmax (in vivo),change of crystal form (XRD pattern) [5],SMILES
결정형 XI의 압축 계수보다 훨씬 더 높으며,–,–,–,–,–,–,–,–,–,"COc1cc2nccc(Oc3ccc(NC(=O)NC4CC4)c(Cl)c3)c2cc1C(N)=O [결정형 C, 렌바티닙 메실레이트]"
–,~120 min,큰 변화가 없었다,결정형 C의 유동성보다 훨씬 우수하며,~0.33%,~0.25%,22900 ± 2840 ng·h/mL,2290 ± 216 ng/mL,4 ± 1.73 h,결정형 변화가 없었다,"COc1cc2nccc(Oc3ccc(NC(=O)NC4CC4)c(Cl)c3)c2cc1C(N)=O [결정형 XI, 렌바티닙 메실레이트, 메실레이트 이수화물]"
